Reference: ChEMBL document CHEMBL5252611, “2- and 3-Fluoro-3-deaza-1',6'-isoneplanocin: Synthesis and antiviral properties (including Ebola and Marburg)” (Bioorg Med Chem Lett, 2023)
pEC50: −log10 of the molar value. The source made the active and inactive calls. No cut-off for these calls is given here.

How the values were obtained:
[1] = system: Rift Valley fever virus; experiment: Antiviral activity against Rift Valley fever virus MP-12 infected in African green monkey Vero 76 cells by visual analysis; format: functional, organism-based; settings: MP-12, Vero 76
[2] = Cytotoxicity against African green monkey Vero 76 cells infected with Rift Valley fever virus MP-12 by visual analysis; format: toxicity, cell-based; settings: chlorocebus sabaeus
[3] = Selectivity index, ratio of CC50 for cytotoxicity against African green monkey Vero 76 cells infected with Rift Valley fever virus MP-12 by visual analysis to EC50 for antiviral activity against Rift Valley fever virus MP-12 infected in African green monkey Vero 76 cells by visual analysis; format: toxicity, cell-based; settings: read-out: Ratio CC50/EC50
[4] = system: Rift Valley fever virus; experiment: Antiviral activity against Rift Valley fever virus MP-12 infected in African green monkey Vero 76 cells by neutral red dye based analysis; format: functional, organism-based; settings: MP-12, Vero 76
[5] = Cytotoxicity against African green monkey Vero 76 cells infected with Rift Valley fever virus MP-12 by neutral red dye based analysis; format: toxicity, cell-based; settings: chlorocebus sabaeus
[6] = Selectivity index, ratio of CC50 for cytotoxicity against African green monkey Vero 76 cells infected with Rift Valley fever virus MP-12 by neutral red dye based analysis to EC50 for antiviral activity against Rift Valley fever virus MP-12 infected in African green monkey Vero 76 cells by neutral red dye based analysis; format: toxicity, cell-based; settings: read-out: Ratio CC50/EC50
[7] = system: Tacaribe virus; experiment: Antiviral activity against Tacaribe virus TRVL11573 infected in African green monkey Vero cells by visual analysis; format: functional, organism-based; settings: Mammarenavirus tacaribeense
[8] = Cytotoxicity against African green monkey Vero cells infected with Tacaribe virus TRVL11573 by visual analysis; format: toxicity, cell-based; settings: chlorocebus sabaeus
[9] = Selectivity index, ratio of CC50 for cytotoxicity against African green monkey Vero cells infected with Tacaribe virus TRVL11573 by visual analysis to EC50 for antiviral activity against Tacaribe virus TRVL11573 infected in African green monkey Vero cells by visual analysis; format: toxicity, cell-based; settings: read-out: Ratio CC50/EC50
[10] = system: Tacaribe virus; experiment: Antiviral activity against Tacaribe virus TRVL11573 infected in African green monkey Vero cells by neutral red dye based analysis; format: functional, organism-based; settings: Mammarenavirus tacaribeense
[11] = Cytotoxicity against African green monkey Vero cells infected with Tacaribe virus TRVL11573 by neutral red dye based analysis; format: toxicity, cell-based; settings: chlorocebus sabaeus
[12] = Selectivity index, ratio of CC50 for cytotoxicity against African green monkey Vero cells infected with Tacaribe virus TRVL11573 by neutral red dye based analysis to EC50 for antiviral activity against Tacaribe virus TRVL11573 infected in African green monkey Vero cells by neutral red dye based analysis; format: toxicity, cell-based; settings: read-out: Ratio CC50/EC50
[13] = system: Pichinde virus; experiment: Antiviral activity against Pichinde virus AN 4763 infected in African green monkey Vero cells by visual analysis; format: functional, organism-based; settings: AN 4763, Vero
[14] = Cytotoxicity against African green monkey Vero cells infected in Pichinde virus AN 4763 by visual analysis; format: toxicity, cell-based; settings: chlorocebus sabaeus, Vero cells infected with Pichinde virus AN 4763
[15] = Selectivity index, ratio of CC50 for cytotoxicity against African green monkey Vero cells infected with Pichinde virus AN 4763 by visual analysis to EC50 for antiviral activity against Pichinde virus AN 4763 infected in African green monkey Vero cells by visual analysis; format: toxicity, cell-based; settings: read-out: Ratio CC50/EC50
[16] = system: Pichinde virus; experiment: Antiviral activity against Pichinde virus AN 4763 infected in African green monkey Vero cells by neutral red dye based analysis; format: functional, organism-based; settings: AN 4763, Vero
[17] = Cytotoxicity against African green monkey Vero cells infected in Pichinde virus AN 4763 by neutral red dye based analysis; format: toxicity, cell-based; settings: chlorocebus sabaeus, Vero cells infected with Pichinde virus AN 4763
[18] = Selectivity index, ratio of CC50 for cytotoxicity against African green monkey Vero cells infected with Pichinde virus AN 4763 by neutral red dye based analysis to EC50 for antiviral activity against Pichinde virus AN 4763 infected in African green monkey Vero cells by neutral red dye based analysis; format: toxicity, cell-based; settings: read-out: Ratio CC50/EC50
[19] = system: Influenza A virus; experiment: Antiviral activity against influenza A virus California/7/2009(H1N1) infected in MDCK cells; format: functional, organism-based
[20] = Cytotoxicity against MDCK cells infected with influenza A virus California/7/2009(H1N1); format: toxicity, cell-based, Canis lupus familiaris; settings: dog
[21] = Selectivity index, ratio of CC50 for cytotoxicity against MDCK cells infected with influenza A virus California/7/2009(H1N1) to EC50 for antiviral activity against influenza A virus California/7/2009(H1N1) infected in MDCK cells; format: toxicity, cell-based; settings: dog; read-out: Ratio CC50/EC50
[22] = system: Punta Toro virus; experiment: Antiviral activity against Punta Toro virus Adames infected in African green monkey Vero 76 cells; format: functional, organism-based
[23] = system: Hepatitis B virus; experiment: Antiviral activity against HBV ayw1 infected in human HepG2.2.15 cells; format: functional, organism-based; settings: ayw1, HepG2.2.15
[24] = Cytotoxicity against human HepG2.2.15 cells; format: toxicity, cell-based, HepG2 2.2.15
[25] = Selectivity index, ratio of CC50 for cytotoxicity against human HepG2.2.15 cells to EC50 for antiviral activity against HBV ayw1 infected in human HepG2.2.15 cells; format: toxicity, cell-based; settings: read-out: Ratio CC50/EC50
[26] = system: Norovirus; experiment: Antiviral activity against Norovirus Genogroup 1 infected in human HG23 cells; format: functional, organism-based; settings: Genogroup 1, HG23
[27] = Cytotoxicity against human HG23 cells infected with Norovirus Genogroup 1; format: toxicity, cell-based
[28] = Selectivity index, ratio of CC50 for cytotoxicity against human HG23 cells infected with Norovirus Genogroup 1 to EC50 for antiviral activity against Norovirus Genogroup 1 infected in human HG23 cells; format: toxicity, cell-based; settings: read-out: Ratio CC50/EC50
[29] = system: Zaire ebolavirus; experiment: Antiviral activity against Zaire ebolavirus infected in African green monkey Vero cells; format: functional, organism-based
[30] = Cytotoxicity against African green monkey Vero cells infected with Zaire ebolavirus; format: toxicity, cell-based; settings: chlorocebus sabaeus
[31] = Selectivity index, ratio of CC50 for cytotoxicity against African green monkey Vero cells infected with Zaire ebolavirus to EC50 for antiviral activity against Zaire ebolavirus infected in African green monkey Vero cells; format: toxicity, cell-based; settings: read-out: Ratio CC50/EC50
[32] = system: Marburgvirus; experiment: Antiviral activity against Marburgvirus Angola infected in African green monkey Vero cells; format: functional, organism-based; settings: Orthomarburgvirus
[33] = Cytotoxicity against African green monkey Vero cells infected with Marburgvirus Angola; format: toxicity, cell-based; settings: chlorocebus sabaeus
[34] = Selectivity index, ratio of CC50 for cytotoxicity against African green monkey Vero cells infected with Marburgvirus Angola to EC50 for antiviral activity against Marburgvirus Angola infected in African green monkey Vero cells; format: toxicity, cell-based; settings: read-out: Ratio CC50/EC50
[35] = system: Chikungunya virus; experiment: Antiviral activity against Chikungunya virus S27 infected in African green monkey Vero 76 cells; format: functional, organism-based
[36] = system: dengue virus type 2; experiment: Antiviral activity against Dengue virus 2 New Guinea infected in human Huh-7 cells; format: functional, organism-based
[37] = system: Japanese encephalitis virus; experiment: Antiviral activity against Japanese encephalitis virus SA 14 infected in African green monkey Vero 76 cells; format: functional, organism-based
[38] = system: Human betaherpesvirus 5; experiment: Antiviral activity against Human betaherpesvirus 5 AD 169 infected in HFF cells; format: functional, organism-based
[39] = system: Venezuelan equine encephalitis virus; experiment: Antiviral activity against Venezuelan equine encephalitis virus TC-83 infected in African green monkey Vero 76 cells; format: functional, organism-based
[40] = system: West Nile virus; experiment: Antiviral activity against West Nile virus Kern 515 infected in African green monkey Vero 76 cells; format: functional, organism-based
[41] = system: Yellow fever virus; experiment: Antiviral activity against Yellow fever virus YFV 17D infected in human Huh-7 cells; format: functional, organism-based
[42] = system: Enterovirus A71; experiment: Antiviral activity against Human enterovirus 71 Tainan/4643/98 infected in African green monkey Vero 76 cells; format: functional, organism-based
[43] = system: Poliovirus 1; experiment: Antiviral activity against Human poliovirus 1 Mahoney infected in African green monkey Vero 76 cells; format: functional, organism-based
[44] = system: Human betaherpesvirus 5; experiment: Antiviral activity against Human betaherpesvirus 5; format: functional, organism-based
[45] = system: Yellow fever virus; experiment: Antiviral activity against Yellow fever virus; format: functional, organism-based
[46] = system: Hepatitis B virus; experiment: Antiviral activity against HBV; format: functional, organism-based
[47] = system: Measles morbillivirus; experiment: Antiviral activity against Measles virus; format: functional, organism-based
[48] = system: Measles morbillivirus; experiment: Antiviral activity against Measles virus CC infected in African green monkey Vero 76 cells by visual analysis; format: functional, organism-based
[49] = Cytotoxicity against African green monkey Vero 76 cells infected with Measles virus CC by visual analysis; format: toxicity, cell-based; settings: chlorocebus sabaeus
[50] = Selectivity index, ratio of CC50 for cytotoxicity against African green monkey Vero 76 cells infected with Measles virus CC by visual analysis to EC50 for antiviral activity against Measles virus CC infected in African green monkey Vero 76 cells by visual analysis; format: toxicity, cell-based; settings: read-out: Ratio CC50/EC50
[51] = system: Measles morbillivirus; experiment: Antiviral activity against Measles virus CC infected in African green monkey Vero 76 cells by neutral red dye based analysis; format: functional, organism-based
[52] = Cytotoxicity against African green monkey Vero 76 cells infected with Measles virus CC by neutral red dye based analysis; format: toxicity, cell-based; settings: chlorocebus sabaeus
[53] = Selectivity index, ratio of CC50 for cytotoxicity against African green monkey Vero 76 cells by neutral red dye based analysis to EC50 for antiviral activity against Measles virus CC infected in African green monkey Vero 76 cells by neutral red dye based analysis; format: toxicity, cell-based; settings: read-out: Ratio CC50/EC50

Structure (SMILES): NC(=O)c1ncn([C@@H]2O[C@H](CO)[C@@H](O)[C@H]2O)n1 [RIBAVIRIN]
- pEC50 [1]: 4.31
- CC50 [2]: > 4090 µM
- selectivity ratio [3]: > 83
- pEC50 [4]: 4.28
- CC50 [5]: > 4090 µM
- selectivity ratio [6]: > 77
- pEC50 [7]: 4.56
- CC50 [8]: > 4090 µM
- selectivity ratio [9]: > 150
- pEC50 [10]: 4.51
- CC50 [11]: 3930 µM
- selectivity ratio [12]: 130
- pEC50 [13]: 4.35
- CC50 [14]: > 4090 µM
- selectivity ratio [15]: > 91
- pEC50 [16]: 4.44
- CC50 [17]: > 3560 µM
- selectivity ratio [18]: > 98
- pEC50 [19]: 4.66
- CC50 [20]: > 4100 µM
- selectivity ratio [21]: > 670

Structure (SMILES): Nc1ncc(F)c2c1ncn2C1=C[C@H](CO)[C@@H](O)[C@H]1O
- Activity [22]: inactive
- pEC50 [23]: 5.89
- CC50 [24]: > 357 µM
- selectivity ratio [25]: > 2760
- pEC50 [19]: > 6.44
- CC50 [20]: > 357 µM
- selectivity ratio [21]: > 1000
- pEC50 [26]: 6.19
- CC50 [27]: > 357 µM
- selectivity ratio [28]: > 2760
- pEC50 [29]: > 7.00
- CC50 [30]: > 100 µM
- selectivity ratio [31]: > 538
- pEC50 [32]: > 7.00
- CC50 [33]: > 100 µM
- selectivity ratio [34]: > 1000
- Activity [35]: inactive
- Activity [36]: inactive
- Activity [37]: Active
- Activity [38]: Active
- Activity [39]: Active
- Activity [40]: inactive
- Activity [41]: inactive
- Activity [42]: Active
- Activity [43]: Active

Structure (SMILES): Nc1ncc(F)c2c1ncn2[C@@H]1C=C(CO)[C@@H](O)[C@H]1O
- Activity [44]: Active
- Activity [45]: Active
- Activity [46]: Active
- Activity [47]: Active

Structure (SMILES): C[C@@]1(O)[C@H](O)[C@@H](CO)O[C@H]1n1ccc(N)nc1=O
- pEC50 [26]: 5.91
- CC50 [27]: > 25 µM
- selectivity ratio [28]: > 22

Structure (SMILES): Nc1ccn([C@@H]2O[C@H](CO)[C@@H](O)[C@H]2F)c(=O)n1
- pEC50 [48]: 5.64
- CC50 [49]: 277 µM
- selectivity ratio [50]: 121
- pEC50 [51]: 5.44
- CC50 [52]: 249 µM
- selectivity ratio [53]: 69
